target: SARS-CoV-2 Papain like protease (PLpro) (Severe acute respiratory syndrome coronavirus 2 (2019-nCoV) (SARS-CoV-2), UniProt P0DTD1); test: Papain Like Protease (PLpro) biochemical assay with profluorogenic substrate Z-RLRGG-AMC; conditions: IC50 (μM), SARS-CoV-2 PLpro 6.25 nM, 25 μM Z-RLRGG-AMC substrate, 60 minute reaction

Cc1ccccc1C(=O)NC(C)c1cc(-c2cnn(C(F)F)c2)nc2ccccc12 (centres unmarked) [Example 105, N-(1-{2-[1-(difluoromethyl)-1H-pyrazol-4-yl]quinolin-4-yl}ethyl)-2-methylbenzamide] showed an IC50 of 0.266 µM.

same assay, conditions: SARS-CoV-2 PLpro 6.25 nM, 25 μM Z-RLRGG-AMC substrate, 60 minute reaction; read-out: IC50

CNC(=O)c1c[nH]c(-c2cc(C(C)NC(=O)c3cc(CN)ccc3C)c3ccccc3c2)c1 (centres unmarked) [Example 71, 5-(4-(1-(5-(aminomethyl)-2-methylbenzamido)ethyl)naphthalen-2-yl)-N-methyl-1H-pyrrole-3-carboxamide] and COC(=O)c1c[nH]c(-c2cc(C(C)NC(=O)c3cc(CN)ccc3C)c3ccccc3c2)c1 (centres unmarked) [Example 70, methyl 5-(4-(1-(5-(aminomethyl)-2-methylbenzamido)ethyl)naphthalen-2-yl)-1H-pyrrole-3-carboxylate] are within 1.5-fold of each other in IC50: 0.016 µM for the first, 0.011 µM for the second.

Compared with C[C@@H](NC(=O)c1ccccc1CCC(=O)NNC(=O)/C=C/C(=O)N(C)C)c1cc(-c2cnn(C)c2)nc2ccccc12 [Example 234, (R,E)-2-(3-(2-(4-(dimethylamino)-4-oxobut-2-enoyl)hydrazineyl)-3-oxopropyl)-N-(1-(2-(1-methyl-1H-pyrazol-4-yl)quinolin-4-yl)ethyl)benzamide], C[C@@H](NC(=O)c1ccccc1CCC(=O)NNC(=O)[C@H]1O[C@@H]1C(=O)O)c1cc(-c2cnn(C)c2)nc2ccccc12 [Example 219, (2S,3S)-3-(2-(3-(2-(((R)-1-(2-(1-methyl-1H-pyrazol-4-yl)quinolin-4-yl)ethyl)carbamoyl)phenyl)propanoyl)hydrazine-1-carbonyl)oxirane-2-carboxylic acid] is 130-fold lower in IC50: 0.128 µM for the first, 0.001 µM for the second.

First: COCC(OCc1cscn1)c1ccc(C(=O)NC2(c3cc(-c4cnn(C)c4)nc4ccccc34)CC2)c(C)c1 (single isomer, unassigned) [Example 325]
Second: Cc1cc(CNCc2cscn2)ccc1C(=O)NC1(c2cc(-c3cnn(C)c3)nc3ccccc23)CC1 [Example 210]
The IC50 of the first is 6-fold lower: 0.001 µM for the first, 0.006 µM for the second. The first is the more potent here.

Cc1ccccc1C(=O)N[C@H](C)c1cc(-c2ccn(C)n2)nc2ccccc12 [Example 12, (R)-2-methyl-N-(1-(2-(1-methyl-1H-pyrazol-3-yl)quinolin-4-yl)ethyl)benzamide] and Cc1cc(-c2cc(C(C)NC(=O)c3ccccc3C)c3ccccc3n2)c[nH]1 (centres unmarked) [Example 117, 2-methyl-N-{1-[2-(5-methyl-1H-pyrrol-3-yl)quinolin-4-yl]ethyl}benzamide] are within 1.5-fold of each other in IC50: 0.532 µM for the first, 0.412 µM for the second.

Going from Cc1ccc(CN)cc1C(=O)NC(C)c1cc(-n2ncc(C(F)(F)F)n2)nc2ccccc12 (centres unmarked) [Example 32, 5-(aminomethyl)-2-methyl-N-(1-(2-(4-(trifluoromethyl)-2H-1,2,3-triazol-2-yl)quinolin-4-yl)ethyl)benzamide] to Cc1ccc(CN)cc1C(=O)N[C@H](C)c1cc(-n2ccnn2)nc2ccccc12 [Example 23, (R)—N-(1-(2-(1H-1,2,3-triazol-1-yl)quinolin-4-yl)ethyl)-5-(aminomethyl)-2-methylbenzamide], the IC50 falls from 0.676 µM to 0.293 µM (2.3-fold). The second is the more potent here.

First: Cc1ccc(NC(=O)[C@H]2CCCCN2)cc1C(=O)NC(C)c1cc(-c2cn[nH]c2)cc2ccccc12 (single isomer, unassigned) [Example 52, (R)—N-(3-(((R*)-1-(3-(1H-pyrazol-4-yl)naphthalen-1-yl)ethyl)carbamoyl)-4-methylphenyl)piperidine-2-carboxamide]
Second: Cc1ccc(NC(=O)[C@H]2CCCCN2)cc1C(=O)NC(C)c1cc(-c2cnn(C)c2)cc2ccccc12 (stereo partly drawn) [Example 4, (2R)—N-(4-methyl-3-((1-(3-(1-methyl-1H-pyrazol-4-yl)naphthalen-1-yl)ethyl)carbamoyl)phenyl)piperidine-2-carboxamide]
The IC50 of the first is 2.1-fold lower: 0.011 µM for the first, 0.023 µM for the second.

Compared with Cc1ccccc1C(=O)NC(C)c1cc(NCC(=O)N2CCOCC2)nc2ccccc12 (centres unmarked) [Example 146, 2-methyl-N-[1-(2-{[2-(morpholin-4-yl)-2-oxoethyl]amino}-quinolin-4-yl)ethyl]benzamide], Cc1ccccc1C(=O)N[C@H](C)c1cc(NC2COC2)nc2ccccc12 [Example 37, (R)-2-methyl-N-(1-(2-(oxetan-3-ylamino)quinolin-4-yl)ethyl)benzamide] is 2.2-fold higher in IC50: 4.5 µM for the first, 10 µM for the second. The first is the more potent here.

First: Cc1ccc(NC(=O)[C@H]2CCCCN2)cc1C(=O)N[C@H](C)c1cc(-c2ccn[nH]2)cc2ccccc12 (single isomer, unassigned) [Example 68]
Second: Cc1ccc(N(C)C(=O)[C@H]2CCCCN2)cc1C(=O)N[C@H](C)c1cc(-c2cnn(C)c2)nc2ccccc12 [Example 15, (R)—N-methyl-N-(4-methyl-3-(((R)-1-(2-(1-methyl-1H-pyrazol-4-yl)quinolin-4-yl)ethyl)carbamoyl)phenyl)piperidine-2-carboxamide]
The IC50 of the first is 55-fold lower: 0.009 µM for the first, 0.495 µM for the second.

Cc1ccc(CN)cc1C(=O)N[C@H](C)c1cc(-c2cc(C(N)=O)c[nH]2)nc2ccccc12 [Example 21, (R)-5-(4-(1-(5-(aminomethyl)-2-methylbenzamido)ethyl)quinolin-2-yl)-1H-pyrrole-3-carboxamide] and COC(=O)c1c[nH]c(-c2cc([C@@H](C)NC(=O)c3cc(CN)ccc3C)c3ccccc3n2)c1 [Example 19, methyl(R)-5-(4-(1-(5-(aminomethyl)-2-methylbenzamido)ethyl)quinolin-2-yl)-1H-pyrrole-3-carboxylate] are within 1.5-fold of each other in IC50: 0.016 µM for the first, 0.015 µM for the second.

Compared with Cc1ccccc1C(=O)NC(C)c1cc(-c2c(C#N)cnn2C)nc2ccccc12 (centres unmarked) [Example 108, N-{1-[2-(4-cyano-1-methyl-1H-pyrazol-5-yl)quinolin-4-yl]ethyl}-2-methylbenzamide], Cc1ccccc1C(=O)NC(C)c1cc(-c2csc(C#N)c2)nc2ccccc12 (centres unmarked) [Example 103, N-{1-[2-(5-cyanothiophen-3-yl)quinolin-4-yl]ethyl}-2-methylbenzamide] is 1.5-fold lower in IC50: 0.931 µM for the first, 0.616 µM for the second. The second is the more potent here.

Going from Cc1ccccc1C(=O)NC(C)c1cc(CCn2cccn2)nc2ccccc12 (stereo in doubt) [Example 157, 2-methyl-N-[(1R)-1-{2-[2-(1H-pyrazol-1-yl)ethyl]-quinolin-4-yl}ethyl]benzamide] to Cc1ccccc1C(=O)N[C@H](C)c1cc(N)nc2ccccc12 [Example 39, (R)-N-(1-(2-aminoquinolin-4-yl)ethyl)-2-methylbenzamide], the IC50 falls from 2.68 µM to 0.861 µM (3.1-fold). The second is the more potent here.

First: CCOC(=O)[C@@H]1O[C@H]1C(=O)NNC(=O)CCc1ccccc1C(=O)N[C@H](C)c1cc(-c2cnn(C)c2)nc2ccccc12 [Example 250, ethyl (2R,3R)-3-(2-(3-(2-(((R)-1-(2-(1-methyl-1H-pyrazol-4-yl)quinolin-4-yl)ethyl)carbamoyl)phenyl)propanoyl)hydrazine-1-carbonyl)oxirane-2-carboxylate]
Second: COC(=O)/C=C/C(=O)NNC(=O)CCc1ccccc1C(=O)NC(C)c1cc(-c2cnn(C)c2)cc2ccccc12 (centres unmarked) [Example 64, methyl (E)-4-(2-(3-(2-((1-(3-(1-methyl-1H-pyrazol-4-yl)naphthalen-1-yl)ethyl)carbamoyl)phenyl)propanoyl)hydrazineyl)-4-oxobut-2-enoate]
The IC50 of the first is 2.5-fold lower: 0.002 µM for the first, 0.005 µM for the second.

COc1cc(-c2cc(C(C)NC(=O)c3ccccc3C)c3ccccc3n2)ccn1 (centres unmarked) [Example 109] and Cc1ccccc1C(=O)NC(C)c1cc(-c2ccsc2)nc2ccccc12 (centres unmarked) [Example 119, 2-methyl-N-{1-[2-(thiophen-3-yl)quinolin-4-yl]ethyl} benzamide] are within 1.5-fold of each other in IC50: 0.28 µM for the first, 0.244 µM for the second.

Cc1cc(COCc2cscn2)ccc1C(=O)NC1(c2cc(-c3cnn(C)c3)cc3nc(C(C)(C)O)ccc23)CC1 [Example 354, N-(1-(2-(2-hydroxypropan-2-yl)-7-(1-methyl-1H-pyrazol-4-yl)quinolin-5-yl)cyclopropyl)-2-methyl-4-((thiazol-4-ylmethoxy)methyl)benzamide] and COC[C@@H](OCc1cocn1)c1ccc(C(=O)NC2(c3cc(-c4cnn(C)c4)cc4ncccc34)CC2)c(C)c1 (single isomer, unassigned) [Example 355] cannot be ordered by IC50: under 0.001 µM for the first, under 0.001 µM for the second.

Cn1cc(-c2cc(C3(NC(=O)c4ccccc4CCC(=O)NNC(=O)/C=C/C(N)=O)CC3)c3ccccc3n2)cn1 [Example 226, (E)-2-(3-(2-(4-amino-4-oxobut-2-enoyl)hydrazineyl)-3-oxopropyl)-N-(1-(2-(1-methyl-1H-pyrazol-4-yl)quinolin-4-yl)cyclopropyl)benzamide] and Cc1ccc(CN)cc1C(=O)NC1(c2cc(-c3cnn(C)c3)cc3ccccc23)CC1 [Example 75, 5-(aminomethyl)-2-methyl-N-(1-(3-(1-methyl-1H-pyrazol-4-yl)naphthalen-1-yl)cyclopropyl)benzamide] are within 1.5-fold of each other in IC50: 0.017 µM for the first, 0.012 µM for the second.

Compared with COCc1cc(-c2cc(C(C)NC(=O)c3ccccc3C)c3ccccc3n2)cs1 (centres unmarked) [Example 106, N-(1-{2-[5-(methoxymethyl)thiophen-3-yl]quinolin-4-yl}ethyl)-2-methylbenzamide], Cc1ccccc1C(=O)N[C@H](C)c1cc(OCC2COC2)nc2ccccc12 [Example 44, (R)-2-methyl-N-(1-(2-(oxetan-3-ylmethoxy)quinolin-4-yl)ethyl)benzamide] is 16-fold higher in IC50: 0.241 µM for the first, 3.97 µM for the second. The first is the more potent here.

First: Cc1cc(C(=O)NC(C)(C)c2ncc[nH]2)ccc1C(=O)N[C@H](C)c1cc(-c2cnn(C)c2)nc2ccccc12 [Example 244]
Second: CNC(=O)c1cc(-c2cc([C@@H](C)NC(=O)c3cc(CN)ccc3C)c3ccccc3n2)cn1C [Example 257, (R)-4-(4-(1-(5-(aminomethyl)-2-methylbenzamido)ethyl)quinolin-2-yl)-N,1-dimethyl-1H-pyrrole-2-carboxamide]
The IC50 of the first is 7.6-fold higher: 0.167 µM for the first, 0.022 µM for the second. The second is the more potent here.

Compared with Cc1ccc(CN)cc1C(=O)N[C@H](C)c1cc(-c2cnn(C)c2)cc2ccccc12 (single isomer, unassigned) [Example 9], Cc1ccc(CN)cc1C(=O)NC(C)c1cc(-c2cnn(C)c2)cc2ccccc12 (centres unmarked) [Example 3, 5-(aminomethyl)-2-methyl-N-(1-(3-(1-methyl-1H-pyrazol-4-yl)naphthalen-1-yl)ethyl)benzamide] is 82-fold lower in IC50: 3.92 µM for the first, 0.048 µM for the second. The second is the more potent here.

CNCc1ccc(C)c(C(=O)NC(C)c2cc(-c3cnn(C)c3)cc3ccccc23)c1 (centres unmarked) [Example 10, 2-methyl-N-(1-(3-(1-methyl-1H-pyrazol-4-yl)naphthalen-1-yl)ethyl)-5-((methylamino)methyl)benzamide] gave an IC50 of 0.033 µM.

— US20240245673A1, “Papain-like protease (PLpro) inhibitors” (Pfizer Inc., priority 2022, published 2024)
